Measured values reported in patent US6960614B2, “Oxygenated esters of 4-lodo phenylamino benzhydroxamic acids” (Warner-Lambert Company, priority 2000, dated 2005).

System: MEK
Test: Cellular Assay for Measuring MEK Inhibition (inhibition of ERK phosphorylation in C26 cells, Western blot)
Type: cell-based, murine
Conditions: for % Inhibition @ 1 μM / % Inhibition @ 10 μM / % Inhibition @ 0.1 μM: ERK phosphorylation in C26 cells; for IC50: inhibition of ERK phosphorylation in murine colon 26 (C26) carcinoma cells, determined graphically from dose response curve
Experimental: The evaluation of the compounds as MEK inhibitors was performed in an assay that measures their ability to inhibit phosphorylation of MAP kinase […]) in murine colon 26 (C26) carcinoma cells. Since ERK1 and ERK2 represent the only known substrates for MEK, measurement of inhibition of ERK phosphorylation in cells provides direct readout of cellular MEK inhibition by the compounds of the invention. Briefly, the assay involves treating exponentially growing C26 cells with varying concentrations of the test compound (or vehicle control) for […] at 37° C. Cells are then rinsed free of compound/vehicle and lysed in a solution containing 70 mM NaCl, 50 mM glycerol phosphate, 10 mM HEPES, pH 7.4, 1% Triton X-100, 1 mM Na3VO4, 100 μM PMSF, 10 μM leupeptin and 10 μM pepstatin. Supernatants are then subjected to gel electrophoresis and Western blotting using a primary antibody recognizing dually phosphorylated ERK1 and ERK2. To evaluate total MAPK levels, blots were subsequently ‘stripped’ and re-probed with a 1:1 mixture of polyclonal antibodies recognizing unphosphorylated ERK1 and ERK2.

Compound	% Inhibition @ 1 μM [%]	% Inhibition @ 10 μM [%]	% Inhibition @ 0.1 μM [%]	IC50 [nM]
O=C(NOCC(O)COc1ccccc1)c1ccc(F)c(F)c1Nc1ccc(F)cc1F (centres unmarked) [Example 195, 2-(2,4-Difluoro-phenylamino)-3,4-difluoro-N-(2-hydroxy-3-phenoxy-propoxy)-benzamide]	26.7	82.6	–	–
CC(C)(CO)CONC(=O)c1cc(F)c(F)c(F)c1Nc1ccc(I)cc1Cl [Example 198, 2-(2-Chloro-4-iodo-phenylamino)-3,4,5-trifluoro-N-(3-hydroxy-2,2-dimethyl-propoxy)-benzamide]	43.5	–	0	–
Cc1cc(I)ccc1Nc1c(C(=O)NOC(C)CO)cc(F)c(F)c1F (centres unmarked) [Example 122, 3,4,5-Trifluoro-N-(2-hydroxy-1-methyl-ethoxy)-2-(4-iodo-2-methyl-phenylamino)-benzamide]	87.3	–	49.6	–
O=C(NOCC1(CO)CC1)c1cc(F)c(F)cc1Nc1ccc(I)cc1F [Example 221, 4,5-Difluoro-2-(2-fluoro-4-iodo-phenylamino)-N-(1-hydroxymethyl-cyclopropylmethoxy)-benzamide]	92.4	–	46	–
O=C(NOCC(O)CN1CCOCC1)c1cc(Cl)c(F)c(F)c1Nc1ccc(I)cc1Cl (centres unmarked) [Example 149, 5-Chloro-2-(2-chloro-4-iodo-phenylamino)-3,4-difluoro-N-(2-hydroxy-3-morpholin-4-yl-propoxy)-benzamide]	–	–	–	170
Cc1cc(I)ccc1Nc1c(C(=O)NOCCCO)cc(F)c(F)c1F [Example 100, 3,4,5-Trifluoro-N-(3-hydroxy-propoxy)-2-(4-iodo-2-methyl-phenylamino)-benzamide]	–	–	–	58
Cc1cc(I)ccc1Nc1c(C(=O)NOCCCO)cc(Br)c(F)c1F [Example 102, 5-Bromo-3,4-difluoro-N-(3-hydroxy-propoxy)-2-(4-iodo-2-methyl-phenylamino)-benzamide]	–	–	–	275
Cc1cc(I)ccc1Nc1c(C(=O)NOCC(O)CN2CCOCC2)ccc(F)c1F (centres unmarked) [Example 148, 3,4-Difluoro-N-(2-hydroxy-3-morpholin-4-yl-propoxy)-2-(4-iodo-2-methyl-phenylamino)-benzamide]	–	–	–	230
CCC(O)CONC(=O)c1ccc(F)c(F)c1Nc1ccc(F)cc1F (centres unmarked) [Example 117, 2-(2,4-Difluoro-phenylamino)-3,4-difluoro-N-(2-hydroxy-butoxy)-benzamide]	66.7	86.9	0	–
Cc1cc(I)ccc1Nc1c(C(=O)NOCCC(O)CO)cc(Br)c(F)c1F (centres unmarked) [Example 97, 5-Bromo-N-(3,4-dihydroxy-butoxy)-3,4-difluoro-2-(4-iodo-2-methyl-phenylamino)-benzamide]	91.9	–	30.1	–
Cc1cc(I)ccc1Nc1c(C(=O)NOCC(O)CO)cc(Br)c(F)c1F (centres unmarked) [Example 91, 5-Bromo-N-(2,3-dihydroxy-propoxy)-3,4-difluoro-2-(4-iodo-2-methyl-phenylamino)-benzamide]	98.9	–	89.4	–
COCCONC(=O)c1ccc(F)c(F)c1Nc1ccc(I)cc1C [Example 136, 3,4-Difluoro-2-(4-iodo-2-methyl-phenylamino)-N-(2-methoxy-ethoxy)-benzamide]	–	–	–	250
O=C(NOCC1(CO)CC1)c1ccc(F)c(F)c1Nc1ccc(F)cc1F [Example 222, 2-(2,4-Difluoro-phenylamino)-3,4-difluoro-N-(1-hydroxymethyl-cyclopropylmethoxy)-benzamide]	9.6	55.6	–	–
CC(CO)ONC(=O)c1cc(Br)c(F)c(F)c1Nc1ccc(I)cc1Cl (centres unmarked) [Example 123, 5-Bromo-2-(2-chloro-4-iodo-phenylamino)-3,4-difluoro-N-(2-hydroxy-1-methyl-ethoxy)-benzamide]	–	–	–	21
Cc1cc(I)ccc1Nc1c(C(=O)NOCC(O)CO)cc(F)c(F)c1F (centres unmarked) [Example 90, N-(2,3-Dihydroxy-propoxy)-3,4,5-trifluoro-2-(4-iodo-2-methyl-phenylamino)-benzamide]	–	–	–	40
O=C(NOCCC(O)CO)c1cc(F)c(F)c(F)c1Nc1ccc(I)cc1Cl (centres unmarked) [Example 93, 2-(2-Chloro-4-iodo-phenylamino)-N-(3,4-dihydroxy-butoxy)-3,4,5-trifluoro-benzamide]	79.1	–	4	–
Cc1cc(I)ccc1Nc1c(C(=O)NOCC(O)COc2ccccc2)cc(Cl)c(F)c1F (centres unmarked) [Example 190, 5-Chloro-3,4-difluoro-N-(2-hydroxy-3-phenoxy-propoxy)-2-(4-iodo-2-methyl-phenylamino)-benzamide]	94.6	–	51.5	–

Compound	% Inhibition @ 1 μM [%]	% Inhibition @ 10 μM [%]	% Inhibition @ 0.1 μM [%]	IC50 [nM]
CC(CO)ONC(=O)c1cc(Br)c(F)c(F)c1Nc1ccc(I)cc1F (centres unmarked) [Example 129, 5-Bromo-3,4-difluoro-2-(2-fluoro-4-iodo-phenylamino)-N-(2-hydroxy-1-methyl-ethoxy)-benzamide]	100	–	100	–
COCCONC(=O)c1cc(Br)c(F)c(F)c1Nc1ccc(I)cc1C [Example 137, 5-Bromo-3,4-difluoro-2-(4-iodo-2-methyl-phenylamino)-N-(2-methoxy-ethoxy)-benzamide]	–	–	–	100
O=C(NOCC1(CO)CC1)c1cc(F)c(F)c(F)c1Nc1ccc(I)cc1F [Example 219, 3,4,5-Trifluoro-2-(2-fluoro-4-iodo-phenylamino)-N-(1-hydroxymethyl-cyclopropylmethoxy)-benzamide]	96.2	–	65.3	–
O=C(NOCC(O)CN1CCOCC1)c1ccc(F)c(F)c1Nc1ccc(Cl)cc1F (centres unmarked) [Example 155, 2-(4-Chloro-2-fluoro-phenylamino)-3,4-difluoro-N-(2-hydroxy-3-morpholin-4-yl-propoxy)-benzamide]	30.9	–	0	–
CC(=O)OCCONC(=O)c1cc(F)c(F)c(F)c1Nc1ccc(I)cc1C [Example 82, Acetic acid 2-({1-[3,4,5-trifluoro-2-(4-iodo-2-methyl-phenylamino)-phenyl]-methanoyl}-aminooxy)-ethyl ester]	–	–	–	> 1000
CC(CO)ONC(=O)c1cc(Cl)c(F)c(F)c1Nc1ccc(F)cc1F (centres unmarked) [Example 132, 5-Chloro-2-(2,4-difluoro-phenylamino)-3,4-difluoro-N-(2-hydroxy-1-methyl-ethoxy)-benzamide]	45.7	80.6	–	–
O=C(NOCC(O)COc1ccccc1)c1cc(Cl)c(F)c(F)c1Nc1ccc(F)cc1F (centres unmarked) [Example 194, 5-Chloro-2-(2,4-difluoro-phenylamino)-3,4-difluoro-N-(2-hydroxy-3-phenoxy-propoxy)-benzamide]	0	–	0	–
O=C(NOCCO)c1cc(F)c(F)cc1Nc1ccc(I)cc1Cl [Example 17, 2-(2-Chloro-4-iodo-phenylamino)-4,5-difluoro-N-(2-hydroxy-ethoxy)-benzamide]	–	–	–	45
Cc1cc(I)ccc1Nc1c(C(=O)NOCCCO)ccc(F)c1F [Example 103, 3,4-Difluoro-N-(3-hydroxy-propoxy)-2-(4-iodo-2-methyl-phenylamino)-benzamide]	–	–	–	487
COCCOCCONC(=O)c1cc(F)c(F)c(F)c1Nc1ccc(I)cc1Cl [Example 208, 2-(2-Chloro-4-iodo-phenylamino)-3,4,5-trifluoro-N-[2-(2-methoxy-ethoxy)-ethoxy]-benzamide]	–	–	–	1030
COCCONC(=O)c1cc(F)c(F)c(F)c1Nc1ccc(I)cc1Cl [Example 135, 2-(2-Chloro-4-iodo-phenylamino)-3,4,5-trifluoro-N-(2-methoxy-ethoxy)-benzamide]	41.4	–	0	–
O=C(NOCC1(CO)CC1)c1ccc(F)c(F)c1Nc1ccc(Cl)cc1F [Example 224, 2-(4-Chloro-2-fluoro-phenylamino)-3,4-difluoro-N-(1-hydroxymethyl-cyclopropylmethoxy)-benzamide]	18.1	–	0	–
CC(CO)ONC(=O)c1ccc(F)c(F)c1Nc1ccc(I)cc1F (centres unmarked) [Example 128, 3,4-Difluoro-2-(2-fluoro-4-iodo-phenylamino)-N-(2-hydroxy-1-methyl-ethoxy)-benzamide]	–	–	–	9
CC(CO)ONC(=O)c1cc(F)c(F)c(F)c1Nc1ccc(I)cc1Cl (centres unmarked) [Example 121, 2-(2-Chloro-4-iodo-phenylamino)-3,4,5-trifluoro-N-(2-hydroxy-1-methyl-ethoxy)-benzamide]	85.5	–	46.9	–
Cc1cc(I)ccc1Nc1c(C(=O)NOCC(C)(C)O)cc(Br)c(F)c1F [Example 172, 5-Bromo-3,4-difluoro-N-(2-hydroxy-2-methyl-propoxy)-2-(4-iodo-2-methyl-phenylamino)-benzamide]	92.9	–	41.9	–
CCC(O)CONC(=O)c1cc(Br)c(F)c(F)c1Nc1ccc(I)cc1C (centres unmarked) [Example 108, 5-Bromo-3,4-difluoro-N-(2-hydroxy-butoxy)-2-(4-iodo-2-methyl-phenylamino)-benzamide]	94.6	–	74	–
O=C(NOCC(O)C(F)(F)F)c1cc(F)c(F)c(F)c1Nc1ccc(I)cc1F (centres unmarked) [Example 210, 3,4,5-Trifluoro-2-(2-fluoro-4-iodo-phenylamino)-N-(3,3,3-trifluoro-2-hydroxy-propoxy)-benzamide]	99.2	–	79.7	–
